This is an account of results in ChEMBL document CHEMBL5500344, “Design, synthesis and biological evaluation of matrine contains benzimidazole derivatives as dual TOPOI and PARP inhibitors for cancer therapy” (Eur J Med Chem, 2024).

In test [1] the test system is A549. The test can be described thus: Antiproliferative activity against human A549 cells assessed as inhibition of cell growth incubated for 48 hrs by MTT assay. Format: functional, cell-based. The following applies: A549, 48 h. (Tetrazolium dyes change colour on reduction, which living cells bring about.)
Test [2] deals with L02. The test can be described thus: Antiproliferative activity against human L02 cells assessed as inhibition of cell growth incubated for 48 hrs by MTT assay. Type of test: functional, cell-based. The following applies: L02, 48 h.
In test [3] the target is T1, DNA topoisomerase 1 (Homo sapiens) (UniProt P11387).
T1 sequence (whole entry): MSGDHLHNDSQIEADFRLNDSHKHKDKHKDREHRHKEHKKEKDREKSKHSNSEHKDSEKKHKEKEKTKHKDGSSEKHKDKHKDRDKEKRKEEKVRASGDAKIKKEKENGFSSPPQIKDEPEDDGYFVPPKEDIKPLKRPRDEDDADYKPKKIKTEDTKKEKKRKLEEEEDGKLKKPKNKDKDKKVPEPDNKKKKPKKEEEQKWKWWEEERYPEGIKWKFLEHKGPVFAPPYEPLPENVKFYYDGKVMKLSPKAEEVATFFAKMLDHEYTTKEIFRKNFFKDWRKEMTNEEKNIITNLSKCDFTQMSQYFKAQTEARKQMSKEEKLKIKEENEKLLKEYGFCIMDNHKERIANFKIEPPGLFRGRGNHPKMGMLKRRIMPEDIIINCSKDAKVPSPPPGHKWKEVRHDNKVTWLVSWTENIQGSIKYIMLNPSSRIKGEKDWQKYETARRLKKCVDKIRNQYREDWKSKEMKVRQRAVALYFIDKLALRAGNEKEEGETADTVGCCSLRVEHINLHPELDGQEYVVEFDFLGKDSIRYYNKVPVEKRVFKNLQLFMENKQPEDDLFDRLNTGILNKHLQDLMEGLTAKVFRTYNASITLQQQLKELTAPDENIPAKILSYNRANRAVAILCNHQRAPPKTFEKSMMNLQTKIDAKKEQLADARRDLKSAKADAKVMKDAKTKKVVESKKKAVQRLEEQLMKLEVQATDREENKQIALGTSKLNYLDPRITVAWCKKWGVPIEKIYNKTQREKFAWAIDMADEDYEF
The test can be described thus: Inhibition of human topoisomerase 1 assessed as relaxation of supercoiled pBR322 plasmid DNA at 100 uM incubated for 10 to 15 mins by EtBr staining based agarose gel electrophoresis method. The following applies: time 10-15 min.

The subject of test [4] is HepG2. Nature of the test: Antiproliferative activity against human HepG2 cells assessed as inhibition of cell growth incubated for 48 hrs by MTT assay. Type of test: functional, cell-based. The following applies: HepG2, 48 h.
Test [5] deals with Poly [ADP-ribose] polymerase 1 (Homo sapiens, UniProt P09874). The test can be described thus: Inhibition of PARP-1 (unknown origin) incubated for 70 mins by HT universal chemiluminescent assay.
Poly [ADP-ribose] polymerase 1, sequence (P09874 whole entry): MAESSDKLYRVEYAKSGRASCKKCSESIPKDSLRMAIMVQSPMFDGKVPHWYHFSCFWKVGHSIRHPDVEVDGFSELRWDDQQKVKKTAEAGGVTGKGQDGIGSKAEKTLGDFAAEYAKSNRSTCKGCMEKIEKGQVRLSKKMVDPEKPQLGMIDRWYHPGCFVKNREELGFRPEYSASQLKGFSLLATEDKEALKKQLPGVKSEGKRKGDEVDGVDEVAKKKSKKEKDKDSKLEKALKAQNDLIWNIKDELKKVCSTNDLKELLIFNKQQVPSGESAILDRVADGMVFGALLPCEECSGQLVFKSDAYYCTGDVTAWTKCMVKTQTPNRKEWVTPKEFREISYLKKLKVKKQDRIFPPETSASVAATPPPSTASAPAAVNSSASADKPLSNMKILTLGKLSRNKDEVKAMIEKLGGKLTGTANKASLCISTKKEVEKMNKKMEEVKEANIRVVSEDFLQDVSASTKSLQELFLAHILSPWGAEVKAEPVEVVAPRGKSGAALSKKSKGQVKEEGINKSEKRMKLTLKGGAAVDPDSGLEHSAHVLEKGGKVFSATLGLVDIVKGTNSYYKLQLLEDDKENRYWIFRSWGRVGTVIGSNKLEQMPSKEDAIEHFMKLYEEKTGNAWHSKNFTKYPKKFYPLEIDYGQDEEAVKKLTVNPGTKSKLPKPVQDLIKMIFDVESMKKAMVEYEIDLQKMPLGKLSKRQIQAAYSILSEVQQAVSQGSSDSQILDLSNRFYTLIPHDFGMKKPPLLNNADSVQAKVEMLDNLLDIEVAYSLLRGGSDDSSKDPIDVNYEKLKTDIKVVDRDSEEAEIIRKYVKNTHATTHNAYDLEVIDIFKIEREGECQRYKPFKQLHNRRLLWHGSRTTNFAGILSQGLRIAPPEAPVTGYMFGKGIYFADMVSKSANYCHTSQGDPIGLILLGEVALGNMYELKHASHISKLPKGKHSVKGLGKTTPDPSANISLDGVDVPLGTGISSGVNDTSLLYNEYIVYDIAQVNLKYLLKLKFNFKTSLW
The subject of test [6] is HGC-27. Nature of the test: Antiproliferative activity against human HGC-27 cells assessed as inhibition of cell growth incubated for 48 hrs by MTT assay. Format: functional, cell-based. The following applies: HGC-27, 48 h, read-out: IC50.
Test [7] deals with HeLa. The test can be described thus: Antiproliferative activity against human HeLa cells assessed as inhibition of cell growth incubated for 48 hrs by MTT assay. Type of test: functional, cell-based.

SMILES strings stand for the structures. Activity calls are given as the source filed them. No cut-off for these calls is given here. Some results are limits rather than exact numbers.

Usually IC50 stands for the midpoint of a concentration-inhibition curve. `Cc1ccc(S(=O)(=O)N2C[C@@H]3CCCN4CCC[C@@H]([C@H]34)[C@H]2CCCc2nc3cc(Br)ccc3n2S(=O)(=O)c2ccc(C)cc2)cc1`: the IC50 in test [1] was 10.8 µM; in test [2] it was over 64 µM; in test [4] it was 4.92 µM; in test [5], 1.41 µM; in test [6], 6.36 µM; in test [7] it was 7.45 µM. In addition, the inhibition entry in test [3] is “Active”.
Regarding `O=C(OCC1c2ccccc2-c2ccccc21)N1C[C@@H]2CCCN3CCC[C@@H]([C@H]23)[C@H]1CCCc1nc2cc(Cl)c(Cl)cc2[nH]1`, the IC50 in test [1] was 13.2 µM; in test [2], over 64 µM; in test [4], 10.8 µM; in test [5], 0.28 µM; in test [6] it was 9.78 µM; in test [7], 8.46 µM. In addition, in test [3], the inhibition result was “Active”.
As for `O=C(CCC[C@@H]1[C@H]2CCCN3CCC[C@@H](CN1C(=O)OCC1c4ccccc4-c4ccccc41)[C@@H]23)Nc1nc2ccccc2[nH]1`, the half-inhibitory concentration (IC50) in test [1] is 12.3 µM; in test [2], over 64 µM; in test [4], 6.45 µM; in test [5] it was 2.58 µM; in test [6] it was 7.38 µM; in test [7] it was 16.1 µM. For the same compound, the inhibition result in test [3] was “Active”.
Consider `O=C(CCC[C@@H]1[C@H]2CCCN3CCC[C@@H](CN1C(=O)OCC1c4ccccc4-c4ccccc41)[C@@H]23)NCCCc1nc2ccc(F)cc2[nH]1`, for which the IC50 in test [1] was 11.8 µM; in test [2] it was over 64 µM; in test [4] it was 6.69 µM; in test [5] it was over 16 µM; in test [6], 8.12 µM; in test [7] it was 16 µM. In addition, the inhibition entry in test [3] is “Active”.
